Measurements from US20260109721A1, “IONIZABLE CATIONIC LIPIDS INCORPORATING SILICON: SYNTHESIS AND LNP FORMULATION” (priority 2023, published 2026).

How the values were obtained:
[1] = LNP size, PDI and zeta potential by Dynamic Light Scattering (Method A); format: physicochemical; conditions: LNP formulated with the lipid, DLS
Protocol: (§1) The synthesized lipids were tested in term of in vitro transfection efficacy and toxicity on HeLa cells. In order to perform the mentioned biological tests, appropriate LNPs had to be formulated from the synthesized lipids. The formulation technique was different in Method A and B. The particle size, polydispersity index (PDI) and zeta potential of resulting LNPs were determined by means of Dynamic Light Scattering technique (DLS). Prior to biological testing the encapsulation efficiency (EE) of the loaded LNPs was determined by using RiboGreen RNA assay. In case of Method A Luc mRNA while in case of Method B GFP mRNA was transfected into the cells. In parallel with the transfection experiments, toxicity of the investigated LNPs was determined, in case of Method A resazurin assay while in case of Method B MTT assay was used. Additionally, the toxicity of the lipids was investigated on HepG2 cells and IC50 values were determined.
• 1. If needed, prepare stock solutions by solving known amounts of lipid powder into an appropriate solvent. The recommended solvent is ethanol and the recommended concentration is typically in the range 10-50 mM. Higher concentrations are preferred to allow flexibility on mRNA-LNP concentration. • 2. Remove the lipid stock solutions from the −20° C. freezer. For long-term storage, −80° C. is used. • 3. Check the vials for precipitation, DOPE (CAS #4004-05-1) (20 mM) and DSPE-PEG (CAS #474922-26-4) (5 mM) may need a 5-30 minute incubation step at 37° C. with intermittent vortexing to resuspend all contents. […] As a last resort, lipids may be heated to 50° C. to resuspend, time should be kept as short as possible to prevent oxidation or other modifying or degradative processes. • 4. Mix the lipids by vortexing for 2 minutes. • 5. […] Cooling the solution prevent excessive evaporation of ethanol or similar solvents upon opening. • 6. Meanwhile, thaw the RNA samples, including the latest SecNLuc control, by inserting the frozen tube in a room temperature aluminium block. • 7. Prepare for each LNP-formulation with identical mRNA component, an RNA master mix according to Table 1 below in a fresh tube. Use of a master mix allows more precise comparison of lipid formulations relative to each other. Split the master mix over a number of fresh tubes equal to the number of samples+controls. Each tube contains 375 μl of mRNA in 10 mM Citrate pH 4.0. • 8. Prepare for each LNP formulation with identical lipid composition a Lipid master mix according to Table 1 below in a fresh tube, exclude the lipid of interest. Use of a master mix allows more precise comparison of the novel ionizable lipid relative to each other. Split the master mix over a number of fresh tubes equal to the number of samples+controls. Each tube contains 65.5 μl of lipid master mix. • 9. Add the ionizable lipid of interest to the equally divide lipid master mix. Mix well by pipetting up and down. Label the tube according to the ionizable lipid used. • 10. Power on the L1 FM (L1 Formulation Machine uses 2 high-speed syringe pumps to mix lipids in organic solvents with mRNA in acidic aquous solution to generate well-defined LNPs. The microfluidic mixing chip involves a dean-type structure performing the high-efficiency mixing at a total flow rate (TFR) of around 12 ml/min at a 3:1 mixing ratio) and allow it to do a calibration of motor positions.
• 18. Fill a fresh syringe (C) through a blunt 18G stainless steel needle with the previously prepared RNA mixture of step 6. The volume should be approximately 85% of total formulation volume+25 μl (dead-volume). Make sure to remove all air bubbles by tapping. • 19. Fill a fresh syringe (D) through a blunt 18G stainless steel needle with the Lipid master mix. The volume should be approximately […] of total formulation volume+25 μl (dead-volume). Again, Make sure to remove all bubbles. • 20. Attach the syringes in the correct orientation, syringe A on the left and syringe B on the right • 21.

HepG2 cell line = test: In vitro toxicity study on HepG2 cell line (resazurin, viability and IC50); format: cell-based, human; conditions: resazurin; for Viability (%) at different lipid concentrations, mean: HepG2 cells, 48 h post-treatment, relative to ethanol vehicle controls; for IC50: Homo sapiens, lipid toxicity, HepG2, 48 h post-treatment, 6.25-800 μM, read-out: IC50 value, μM (on HepG2 cell)
Protocol: as §1
HepG2 cell line (human hepatocellular carcinoma) were maintained in DMEM medium supplemented with 10% FBS. Cell toxicity measurements were carried out in 384-well microtiter plates with 1000 cells seeded in each well. Test measurements were carried out in triplicate, and control measurements in quadruplicate. After an overnight incubation, the cells were treated with an increasing concentration of the test compounds (6.25, 12.5, 25, 50, 100, 200, 400, 800 μM). […] 48 h post-treatment, following visual inspection under an inverted microscope, cell viability was measured by resazurin assay. Viability of treated cells was calculated relative to that of ethanol vehicle controls. Concentration response curves (CRCs) were obtained and corresponding IC50 values were calculated where applicable and are shown in Table 9.
Resazurin reagent (Sigma-Aldrich) was dissolved in PBS (pH 7.4) at 0.15 mg/ml concentration, 0.22 μm filtered and aliquoted at −20° C., 10 μl resazurin stock solution was added to wells. After 5 hours incubation at 37° C. under 5% CO2 fluorescence (530 nm excitation/580 nm emission) was recorded on a multimode microplate reader.

| Compound | PDI [1] | Size (nm) [1] | Zeta potential (mV) [1] | Viability (%) at different lipid concentrations, mean (HepG2 cell line; 6.25 μM lipid) | Viability (%) at different lipid concentrations, mean (HepG2 cell line; 12.5 μM lipid) | Viability (%) at different lipid concentrations, mean (HepG2 cell line; 25 μM lipid) | Viability (%) at different lipid concentrations, mean (HepG2 cell line; 50 μM lipid) | Viability (%) at different lipid concentrations, mean (HepG2 cell line; 100 μM lipid) | Viability (%) at different lipid concentrations, mean (HepG2 cell line; 200 μM lipid) | Viability (%) at different lipid concentrations, mean (HepG2 cell line; 400 μM lipid) | Viability (%) at different lipid concentrations, mean (HepG2 cell line; 800 μM lipid) | IC50 (HepG2 cell line) |
| --- | --- | --- | --- | --- | --- | --- | --- | --- | --- | --- | --- | --- |
| CCCCC/C=C\C/C=C\CCCCCCCCOC(CCCCCCC/C=C\C/C=C\CCCCC)O[Si](C)(C)OCCCCCCN1CCCCC1CO (stereo not drawn) [Example 64, (1-((20Z,23Z)-10-((8Z,11Z)-heptadeca-8,11-dien-1-yl)-8,8-dimethyl-7,9,11-trioxa-8-silanonacosa-20,23-dien-1-yl)piperidin-2-yl)methanol] | 0.098 | 293.7 nm | −9.226 mV | 99.5% | 98.7% | 100.3% | 97.8% | 97.8% | 91.7% | 80.3% | 47.4% | 775 µM |
| CCCCC/C=C\C/C=C\CCCCCCCC(OCCCCCCCCCCCCCCCC)O[Si](C)(C)OCCCCCCN(CCO)CCO (stereo not drawn) [Example 44, 13-((8Z,11Z)-heptadeca-8,11-dien-1-yl)-3-(2-hydroxyethyl)-11,11-dimethyl-10,12,14-trioxa-3-aza-11-silatriacontan-1-ol] | 0.083 | 131.2 nm | −8.273 mV | 100.8% | 98.5% | 106.8% | 112.7% | 122.0% | 118.8% | 103.0% | 94.0% | > 800 µM |
| CCCCCCCC/C=C\CCCCCCCC(OCC(CCCCCC)CCCCCCCC)O[Si](C)(C)OCCCCCCN(CCO)CCO (stereo not drawn) [Example 50, (Z)-13-(heptadec-8-en-1-yl)-16-hexyl-3-(2-hydroxyethyl)-11,11-dimethyl-10,12,14-trioxa-3-aza-11-silatetracosan-1-ol] | 0.022 | 153.8 nm | −10.38 mV | 101.0% | 97.6% | 99.0% | 97.9% | 96.0% | 100.0% | 96.5% | 86.8% | > 800 µM |
| CCCCC/C=C\C/C=C\CCCCCCCC(OCCCCCCCC/C=C\CCCCCCCC)O[Si](C)(C)OCCCCCCN(CCO)CCO (stereo not drawn) [Example 45, (Z)-13-((8Z,11Z)-heptadeca-8,11-dien-1-yl)-3-(2-hydroxyethyl)-11,11-dimethyl-10,12,14-trioxa-3-aza-11-siladotriacont-23-en-1-ol] | 0.043 | 136.8 nm | −8.85 mV | 105.6% | 99.4% | 100.4% | 106.0% | 109.5% | 107.1% | 64.9% | 1.1% | 421 µM |
